Source: article PMC8689007, “In Silico Prediction and Bioactivity Evaluation of Chemical Ingredients Against Influenza A Virus From Isatis tinctoria L” (Frontiers in Pharmacology, 2021)
Converted amounts (≈) assume the structure as drawn. “And” between values parts separate entries of the source, which are not always exact repeats. Identical values can stand only once. Like-named read-outs stand apart in the source and are kept apart here.

Columns and labels:
[1] = system: A/PR/8/34 (H1N1)
[2] = system: A/Minfang/151/2000 (H3N2)
[3] = system: A/PR/8/34 (H1N1); test: microbe, parasite or virus in culture; conditions: Influenza A virus, MDCK
[4] = system: A/Minfang/151/2000 (H3N2); test: microbe, parasite or virus in culture; conditions: Influenza A virus, H3N2, MDCK
[5] = system: HCoV-NL63; set-up: method as in Tsai et al., 2020; conditions: HCoV-NL63-infected cells; ref Tsai et al., 2020; read-out: IC50 (CPE and virus yield); cited from earlier work
[6] = system: Japanese encephalitis virus (JEV); conditions: mouse model; ref Chang et al., 2012; cited from earlier work
[7] = system: H1N1; conditions: restraint-stressed mouse model; ref Chong et al., 2017; cited from earlier work
[8] = system: Japanese encephalitis virus (JEV); conditions: in vitro; ref Chang et al., 2012; cited from earlier work

COc1ccc(-c2cc(=O)c3c(O)cc(O[C@@H]4O[C@H](CO[C@@H]5O[C@@H](C)[C@H](O)[C@@H](O)[C@H]5O)[C@@H](O)[C@H](O)[C@H]4O)cc3o2)cc1 [Linarin]
IC50 [1]: 54.27 ± 3.01 µg/mL and 72.21 ± 2.42 µg/mL and 56.26 ± 0.78 µg/mL
IC50 [2]: 81.85 ± 2.76 µg/mL and 86.35 ± 9.88 µg/mL and 77.71 ± 3.08 µg/mL
IC50 [3]: 63.2 ± 3.32 µg/mL (≈ 107 µM)

COc1ccc(-c2cc(=O)c3c(O)cc(O)cc3o2)cc1 [Acacetin]
IC50 [4]: 7.62 ± 1.45 µg/mL (≈ 26.8 µM)

COc1c(O)cc2oc(-c3ccc(O)cc3)cc(=O)c2c1O [Dinatin]
IC50 [4]: > 100 µg/mL

O=C1c2ccccc2-n2c1nc1ccccc1c2=O [Tryptanthrin]
IC50 [5]: 1520 nM

COc1ccc(-c2cc(=O)c3c(O)c(OC)c(OC)cc3o2)cc1O [Eupatorin]
IC50 [1]: 63.99 ± 3.38 µg/mL and 55.77 ± 3.86 µg/mL and 88.92 ± 7.34 µg/mL
IC50 [2]: 69.31 ± 1.97 µg/mL and 73.85 ± 1.34 µg/mL and 92.58 ± 0.33 µg/mL
IC50 [3]: 59.5 ± 3.58 µg/mL (≈ 173 µM)

O=C1Nc2ccccc2/C1=C1/Nc2ccccc2C1=O [Indirubin]
protection against lethal JEV challenge [6]: good protective effects
IC50 [1]: 63.45 ± 5.27 µg/mL and 86.3 ± 5.68 µg/mL and 69.49 ± 1.36 µg/mL
H1N1 susceptibility and lung damage [7]: decrease the H1N1 susceptibility and alleviate lung damage
inhibitory activity on JEV replication [8]: concentration-dependent inhibitory activity
IC50 [3]: 58.5 ± 10.2 µg/mL (≈ 223 µM)
IC50 [4]: 77.2 ± 6 µg/mL (≈ 294 µM)
